Among the data in BindingDB's records for doi:10.1016/s0960-894x(01)00654-0 (Merck Research Laboratories, 2001) are IC50 values, retold here.

Assay [1] concerns the target T1, C-C chemokine receptor type 5 (Homo sapiens, UniProt P51681). In words: ChEBML_39507. The source says:
(§1) Binding affinity against C-C chemokine receptor type 5 stably expressed in Chinese hamster ovary (CHO) cells using [125I]-MIP-1 alpha as the radioligand

Assay [2] has as its target T1, C-C chemokine receptor type 5. The description is as §1.

T1 sequence (P51681 whole entry): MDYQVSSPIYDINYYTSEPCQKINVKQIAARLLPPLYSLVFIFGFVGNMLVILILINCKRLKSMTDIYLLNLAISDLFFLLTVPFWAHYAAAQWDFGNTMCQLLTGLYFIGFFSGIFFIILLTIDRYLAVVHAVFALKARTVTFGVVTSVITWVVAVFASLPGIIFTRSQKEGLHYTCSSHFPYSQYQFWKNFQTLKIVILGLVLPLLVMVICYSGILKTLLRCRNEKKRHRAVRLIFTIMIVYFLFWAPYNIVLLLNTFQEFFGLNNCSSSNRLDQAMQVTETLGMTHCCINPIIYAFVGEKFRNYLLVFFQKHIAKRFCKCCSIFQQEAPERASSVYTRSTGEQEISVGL

Turning to `O=c1[nH]c(Cc2c[nH]c3ccccc23)c(O)n1CC(CCN1CCC(c2ccccc2)CC1)c1cccc(Cl)c1` [(R)-3-[2-(3-Chloro-phenyl)-4-(4-phenyl-piperidin-1-yl)-butyl]-5-(1H-indol-3-ylmethyl)-imidazolidine-2,4-dione], the IC50 in assay [1] and in assay [2] was 25 nM in each case.
